Test results: US20260200928A1, “THERAPEUTIC COMPOUNDS” (Sanofi, priority 2022, published 2026)

Biological target: T1, human IL-17A (Homo sapiens, UniProt Q16552)
T1 construct: purchased R&D Systems 7955-IL/CF
T1 sequence (Q16552 24-155): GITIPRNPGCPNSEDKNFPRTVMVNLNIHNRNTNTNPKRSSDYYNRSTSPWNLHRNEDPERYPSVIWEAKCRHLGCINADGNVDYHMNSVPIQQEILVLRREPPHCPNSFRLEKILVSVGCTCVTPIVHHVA
Test: IL-17A AlphaLISA competition assay (block of IL-17A binding to its receptor IL-17RA)
Details: mean IC50 (n≥2), block of IL-17A binding to IL-17RA
Procedure, shortened: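 Bead-based AlphaLISA competition in PBS with 0.05% Tween-20 and 0.1% BSA: compound first meets human IL-17A (7.5 nM stock) for 30 min, then IL-17RA/Fc (5 nM stock) for 90 min, all at room temperature, before acceptor/donor bead capture. IC50 fitted 4-parameter, DMSO and 4 μM reference inhibitor as controls; at least duplicate.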

| SMILES | IC50 [nM] |
| --- | --- |
| COC[C@H](c1ccnc(NC(=O)[C@@H](NC(=O)c2nonc2C(C)C)C2CCC(F)(F)CC2)c1)N1C[C@@H](C(F)(F)F)NC1=O [Example 195, N-((S)-1-(4,4-difluorocyclohexyl)-2-((4-((S)-2-methoxy-1-((S)-2-oxo-4-(trifluoromethyl)imidazolidin-1-yl)ethyl)pyridin-2-yl)amino)-2-oxoethyl)-4-isopropyl-1,2,5-oxadiazole-3-carboxamide] | 18 |
| CCc1oncc1C(=O)N[C@H](C(=O)Nc1cc([C@@H](COC)N2C[C@@H](C(F)(F)F)NC2=O)ccn1)[C@@H]1C[C@H]2C[C@H]2C1 [Example 318, N—((S)-1-((1R,3s,5S)-bicyclo[3.1.0]hexan-3-yl)-2-((4-((S)-2-methoxy-1-((S)-2-oxo-4-(trifluoromethyl)imidazolidin-1-yl)ethyl)pyridin-2-yl)amino)-2-oxoethyl)-5-ethylisoxazole-4-carboxamide] | 64 |
| CCn1nccc1C(=O)N[C@H](C(=O)Nc1cc(C(COC)NC(=O)CCC(F)(F)F)ccn1)C1CCC(F)(F)CC1 (single isomer, unassigned) [Example 144] | 1830 |
| C[C@@H](OC(C)(C)C)[C@H](NC(=O)c1ccnn1C)C(=O)Nc1cc(CN2C[C@@H](C(F)(F)F)NC2=O)ccn1 [Example 103, N-((2S,3R)-3-(tert-butoxy)-1-oxo-1-((4-(((S)-2-oxo-4-(trifluoromethyl)-imidazolidin-1-yl)methyl)pyridin-2-yl)amino)butan-2-yl)-1-methyl-1H-pyrazole-5-carboxamide] | 1740 |
| Cc1nonc1C(=O)N[C@H](C(=O)Nc1cc(C(C2CC2)N2C[C@@H](C(F)(F)F)NC2=O)ccn1)C1CCC(F)(F)CC1 (single isomer, unassigned) [Example 164, N-((1S)-2-((4-((R or S)-cyclopropyl((S)-2-oxo-4-(trifluoromethyl)imidazolidin-1-yl)methyl)pyridin-2-yl)amino)-1-(4,4-difluorocyclohexyl)-2-oxoethyl)-4-methyl-1,2,5-oxadiazole-3-carboxamide] | 35 |
| Cn1nccc1C(=O)N[C@H](C(=O)Nc1cc(C(NC(=O)CCC(F)(F)F)C2CC2)ccn1)C(C1CC1)C1CC1 (single isomer, unassigned) [Example 42] | 524 |
| CCc1nonc1C(=O)N[C@H](C(=O)Nc1cc(CN2C[C@@H](C(F)(F)F)NC2=O)ccn1)[C@@H](C)OC(C)(C)C [Example 129, N-((2S,3R)-3-(tert-butoxy)-1-oxo-1-((4-(((S)-2-oxo-4-(trifluoromethyl)-imidazolidin-1-yl)methyl)-pyridin-2-yl)amino)butan-2-yl)-4-ethyl-1,2,5-oxa-diazole-3-carboxamide] | 533 |
| CCc1nonc1C(=O)N[C@H](C(=O)Nc1cc([C@@H](COC)N2C[C@@H](C(F)(F)F)NC2=O)ccn1)C1CCC(F)(F)CC1 [Example 187, N—((S)-1-(4,4-Difluorocyclohexyl)-2-((4-((S)-2-methoxy-1-((S)-2-oxo-4-(trifluoromethyl)imidazolidin-1-yl)ethyl)pyridin-2-yl)amino)-2-oxoethyl)-4-ethyl-1,2,5-oxadiazole-3-carboxamide] | 17 |

Continued, values first:

| IC50 [nM] | SMILES |
| --- | --- |
| 74 | COCC(c1ccnc(NC(=O)[C@@H](NC(=O)OC(C)(C)C)[C@H]2CC[C@H](C)CC2)c1)N1C[C@@H](C(F)(F)F)NC1=O (single isomer, unassigned) [Example 66, tert-butyl ((S)-2-((4-((R or S)-2-methoxy-1-((S)-2-oxo-4-(trifluoromethyl)imidazolidin-1-yl)ethyl)pyridin-2-yl)amino)-1-((1r,4S)-4-methylcyclohexyl)-2-oxoethyl)carbamate] |
| 1470 | C[C@@H]1CN(Cc2ccnc(NC(=O)[C@@H](NC(=O)c3ccnn3C3CC3)C(C3CC3)C3CC3)c2)C(=O)N1 [Example 34, 1-cyclopropyl-N—((S)-1,1-dicyclopropyl-3-((4-(((R)-4-methyl-2-oxoimidazolidin-1-yl)methyl)pyridin-2-yl)amino)-3-oxopropan-2-yl)-1H-pyrazole-5-carboxamide] |
| 58 | CCc1conc1C(=O)N[C@H](C(=O)Nc1cc([C@@H](COC)N2C[C@@H](C(F)(F)F)NC2=O)ccn1)C1CCC(Cl)CC1 (stereo partly drawn) [Example 314, N-((1S)-1-(4-chlorocyclohexyl)-2-((4-((S)-2-methoxy-1-((S)-2-oxo-4-(trifluoromethyl)imidazolidin-1-yl)ethyl)pyridin-2-yl)amino)-2-oxoethyl)-4-ethylisoxazole-3-carboxamide] |
| 347 | COC[C@H](c1ccnc(NC(=O)[C@@H](NC(=O)C(C)c2cccc(C#N)c2)C2CCC(F)(F)CC2)c1)N1C[C@@H](C(F)(F)F)NC1=O (stereo partly drawn) [Example 205, 2-(3-cyanophenyl)-N-((S)-1-(4,4-difluorocyclohexyl)-2-((4-((S)-2-methoxy-1-((S)-2-oxo-4-(trifluoromethyl)imidazolidin-1-yl)ethyl)pyridin-2-yl)amino)-2-oxoethyl) propanamide] |
| 1960 | Cc1cc(COC(=O)N[C@H](C(=O)Nc2cc(CN3C[C@@H](C(F)(F)F)NC3=O)ccn2)C2CCC(F)(F)CC2)no1 [Example 57, (5-Methylisoxazol-3-v)methyl ((S)-1-(4,4-difluorocyclohexyl)-2-oxo-2-((4-(((S)-2-oxo-4-(trifluoromethyl)imidazolidin-1-VI)methyl)pyridin-2-yl)amino)ethyl)carbamate] |
| 32 | CCC(c1ccnc(NC(=O)C(NC(=O)c2nonc2C2CC2)C2CCC(C)CC2)c1)N1CC(C(F)(F)F)NC1=O [Example 257, 4-cyclopropyl-N-((S)-1-((1r,4S)-4-methylcyclohexyl)-2-oxo-2-((4-((R)-1-((S)-2-oxo-4-(trifluoromethyl)imidazolidin-1-yl)propyl)pyridin-2-yl)amino)ethyl)-1,2,5-oxadiazole-3-carboxamide] |
| 2080 | C[C@H]1CC[C@H]([C@H](NC(=O)NCc2ccccc2)C(=O)Nc2cc(CN3C[C@@H](C(F)(F)F)NC3=O)ccn2)CC1 [Example 97, (S)-2-(3-Benzylureido)-2-((1r,4S)-4-methylcyclohexyl)-N-(4-(((S)-2-oxo-4-(trifluoromethyl)imidazolidin-1-yl)methyl)pyridin-2-yl)acetamide] |
| 40 | CCc1nocc1C(=O)NC(C(=O)Nc1cc([C@@H](COC)N2C[C@@H](C(F)(F)F)NC2=O)ccn1)C1CCC(F)CC1 (single isomer, unassigned) [Example 286] |
